Assay results from PubChem BioAssay (NCI).
Several values for one entry are separate records, joined by “and”; a condition that tells them apart may be missing. Equal entries are not always repeated.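 1) Cells in 96-well plates. 2) Compound, 48 h, 5 concentrations. 3) Linear interpolation between surrounding doses. 4) Unreached endpoint = highest concentration. Abbreviation: GI50, concentration required for 50% inhibition of growth. TGI: concentration producing complete growth inhibition.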

Key:
Assay in all cases: growth of human tumour cells (NCI), 48 h
[1] = test system: DMS 114 small cell lung
[2] = test system: DMS 273 small cell lung
[3] = test system: HOP-18 NSCLC
[4] = test system: KM20L2 colon
[5] = test system: LXFL 529 NSCLC
[6] = test system: MDA-N
[7] = test system: RXF-631 renal
[8] = test system: SNB-78 CNS
[9] = test system: XF 498 CNS

Compound	TGI [1]	TGI [2]	TGI [3]	TGI [4]	TGI [5]	TGI [6]	TGI [7]	TGI [8]	TGI [9]	GI50 [1]	GI50 [2]	GI50 [3]	GI50 [4]	GI50 [5]	GI50 [8]
O=C1c2ccccc2C(=O)c2c(/C=C\N3CCCCC3)ccnc21	4.2 µM	10.4 µM	2.96 µM	32.6 µM	15 µM	0.352 µM	> 45.8 µM	61.8 µM	27.2 µM	–	–	–	–	–	–
N#CC(C(=O)CCC(=O)Nc1ccc(Cl)c(Cl)c1)c1ccccc1 (stereo unspecified)	> 100 µM	> 100 µM	> 100 µM	> 100 µM	–	–	–	> 100 µM	> 100 µM	–	–	–	–	–	–
O=C(Nc1nc(=S)[nH][nH]1)C(=O)C(C(=O)c1ccc2ccccc2c1)C1OC(=O)c2ccccc21 (stereo unspecified)	52.7 µM	87.5 µM	40.2 µM	> 100 µM	52.7 µM	–	77.6 µM	> 100 µM	41.9 µM	–	–	–	–	–	–
O=C(NC1C=CCC2C(=O)N(c3ccccc3)C(=O)C12)OCc1ccccc1 (stereo unspecified)	–	> 100 µM	> 100 µM	> 100 µM	> 100 µM	–	–	> 100 µM	> 100 µM	–	–	–	–	–	–
CN1C(=O)C(=O)N2c3ccc(Cl)cc3C3(c4ccccc4)N=CC12O3 (stereo unspecified)	11.6 µM	16.4 µM	34.6 µM	24.1 µM	10.2 µM	–	–	33.8 µM	12.3 µM	–	–	–	–	–	–
CCC(C)SC1SCC2C(=O)N(C)C3(CC3C)C(=O)OCC(NC(=O)c3nc4ccccc4cc3O)C(=O)NC(C)C(=O)N(C)C1C(=O)N(C)C1(CC1C)C(=O)OCC(NC(=O)c1nc3ccccc3cc1O)C(=O)NC(C)C(=O)N2C (stereo unspecified)	0.000279 µM	0.000123 µM	24.1 µM	0.000446 µM	0.791 µM	0.000162 µM	1.22 µM	0.255 µM	0.000434 µM	–	–	–	–	–	–
Cc1nc(-c2nc(C)c(C(=O)NNC(=O)C[n+]3ccccc3)s2)sc1C(=O)NNC(=O)C[n+]1ccccc1	> 100 µM	–	–	> 100 µM	> 100 µM	–	–	> 100 µM	–	–	–	–	–	–	–
CC(=O)Nc1cc2ccc(=O)oc2cc1Cl	–	–	–	–	–	> 100 µM	–	–	–	–	–	–	–	–	–
CC1(C)CC(c2c[nH]c3ccccc23)=CC2=Nc3ccccc3C21O (stereo unspecified)	> 100 µM	> 100 µM	–	> 100 µM	> 100 µM	–	–	> 100 µM	> 100 µM	–	–	–	–	–	–
Clc1ccc2cccc3c2c1C1OC3c2ccccc21 (stereo unspecified)	> 100 µM	> 100 µM	> 100 µM	> 100 µM	> 100 µM	–	–	> 100 µM	> 100 µM	–	–	–	–	–	–
S=P1(Oc2ccccc2)NNP2(=NP(N3CC3)(N3CC3)=NP(N3CC3)(N3CC3)=N2)NN1 (stereo unspecified)	> 100 µM	> 100 µM	> 100 µM	–	> 100 µM	–	> 100 µM	–	> 100 µM	–	–	–	–	–	–
NC(N)=NS(=O)(=O)c1ccc(N=Nc2c(O)c(C(=O)O)cc3ccccc23)cc1	–	–	–	–	–	> 100 µM	–	–	–	–	–	–	–	–	–
O=C1CSC(=S)N1/N=C/c1ccc(Cl)c([N+](=O)[O-])c1	–	–	–	–	–	52.6 µM	–	–	–	–	–	–	–	–	–
COC1=CC(=O)C(C2(OC(C)C)OC(=O)C(Cl)=C2Cl)=CC1=O (stereo unspecified)	–	–	–	–	–	> 100 µM	–	–	–	–	–	–	–	–	–
Nc1nc2[nH]cc(CCc3ccc(C(=O)N[C@@H](CCC(=O)O)C(=O)O)cc3)c2c(=O)[nH]1	–	–	–	–	–	> 100 µM	–	–	–	–	–	–	–	–	–
CCOC(=O)C1Sc2ccccc2N=C1C (stereo unspecified)	> 100 µM	–	> 100 µM	> 100 µM	> 100 µM	–	–	> 100 µM	> 100 µM	–	–	–	–	–	–
CC(=O)[O-].CC(=O)[O-].O=C(N/N=C/c1cc(Cl)cc(Cl)c1O)c1ccncc1.[Cu+2]	–	–	–	> 100 µM	–	–	–	–	–	–	–	–	–	–	–
O=C(O)CSc1n[nH]c(-c2ccccc2O)n1	> 100 µM	> 100 µM	–	> 100 µM	> 100 µM	–	> 100 µM	> 100 µM	> 100 µM	–	–	–	–	–	–
CC(=O)OC1(C)N=NC2(CCCCC2)O1 (stereo unspecified)	–	–	–	–	–	> 100 µM	–	–	–	–	–	–	–	–	–

Compound	TGI [1]	TGI [2]	TGI [3]	TGI [4]	TGI [5]	TGI [6]	TGI [7]	TGI [8]	TGI [9]	GI50 [1]	GI50 [2]	GI50 [3]	GI50 [4]	GI50 [5]	GI50 [8]
C=C(C)C(=O)O[C@@H]1C[C@@]2(C)O[C@@H]2C[C@H](O)/C(C)=C/[C@H]2OC(=O)C(=C)[C@@H]21	–	–	–	–	–	> 100 µM	–	–	–	–	–	–	–	–	–
Cc1[cH-]c(=O)n(-c2ccccc2)n1.[Au+].[Au].c1ccc([PH+](c2ccccc2)c2ccccc2)cc1.c1ccc([PH+](c2ccccc2)c2ccccc2)cc1	11.6 µM	30.7 µM	27 µM	> 100 µM	2.38 µM and 3.55 µM	–	–	> 100 µM	–	2.81 µM	10.3 µM	4.06 µM and 10.3 µM	66.7 µM	0.488 µM and 1.09 µM	3.43 µM and 14.6 µM
C=C(C)C12OC1[C@@]1(C)C(=CC2=O)CCC(O)[C@@H]1C (stereo partly specified)	–	–	–	–	–	17.3 µM	–	–	–	–	–	–	–	–	–
COc1c(CC(C)=O)ccc2c1C(=O)c1ccc(C=O)c(OC(C)=O)c1C2=O	33.2 µM	24.5 µM	40.6 µM	37.8 µM	19.4 µM	–	47.8 µM	55.6 µM	–	–	–	–	–	–	–
CCCCCCCCCCCCNC(=S)OC	17.9 µM	29.3 µM	32.3 µM	30 µM	28.2 µM	–	–	45.9 µM	30.6 µM	–	–	–	–	–	–
[O-][Cl+3]([O-])([O-])[O-].[O]=[Ru]=[O].c1ccc(-c2ccccn2)nc1.c1ccc(-c2ccccn2)nc1	61.2 µM	> 100 µM	> 100 µM	> 100 µM	> 100 µM	–	–	> 100 µM	–	21.9 µM	22.4 µM	> 100 µM	> 100 µM	41.3 µM	> 100 µM
CCOC(=O)C1=C(C)N(NC(=O)Nc2ccccc2)C2(N)N(NC(=O)Nc3ccccc3)C(C)=C(C(=O)OCC)C12C(=O)OCC (stereo unspecified)	> 100 µM	> 100 µM	54.6 µM	> 100 µM	> 100 µM	–	> 100 µM	> 100 µM	37.9 µM	–	–	–	–	–	–
Cc1ccc(S(=O)(=O)N2CCC2c2ccccc2)cc1 (stereo unspecified)	> 100 µM	> 100 µM	> 100 µM	> 100 µM	–	–	–	> 100 µM	> 100 µM	–	–	–	–	–	–
COc1cc2c(cc1OC)C(Cl)C(c1ccc(F)cc1)=C2Cl (stereo unspecified)	28.5 µM	31.9 µM	30.5 µM	28 µM	24 µM	–	–	68.6 µM	–	–	–	–	–	–	–
O=c1c2cccnc2ncn1CCN1CCCCC1	> 100 µM	> 100 µM	–	> 100 µM	> 100 µM	–	–	> 100 µM	> 100 µM	–	–	–	–	–	–
O=S1C(=c2ccc(=C3Sc4ccccc4S3)cc2)Sc2ccccc21 (stereo unspecified)	> 56.4 µM	37.1 µM	> 100 µM	31.9 µM	> 100 µM	–	–	> 100 µM	–	–	–	–	–	–	–
CCCOc1nc(N)c2cnn(C3CCCCO3)c2n1 (stereo unspecified)	> 100 µM	> 100 µM	> 100 µM	> 100 µM	> 100 µM	–	–	> 100 µM	–	–	–	–	–	–	–
C[C@@H]1CC[C@H]2C(C)(C)[C@H]3C[C@@]12CC[C@@]3(C)O	–	–	–	–	–	> 100 µM	–	–	–	–	–	–	–	–	–
CN(C)CC1CCC/C1=N/OC(=O)c1ccccc1 (stereo unspecified)	> 100 µM	> 100 µM	> 100 µM	> 100 µM	> 100 µM	–	> 100 µM	> 100 µM	–	–	–	–	–	–	–
CC#Cc1ccc(-c2ccccc2)s1	–	–	–	–	–	> 100 µM	–	–	–	–	–	–	–	–	–
O=c1[nH]c(-c2ccccc2)nc2cc(Cl)ccc12	> 100 µM	> 100 µM	–	> 100 µM	> 100 µM	–	> 100 µM	> 100 µM	> 100 µM	–	–	–	–	–	–
CN(C)C(=S)/N=c1\ssc(=S)n1C1CCCCC1	50.5 µM	> 100 µM	> 100 µM	> 100 µM	75.6 µM	–	40.8 µM	–	59.3 µM	–	–	–	–	–	–
O=C(/C=C/c1c(O)ccc2ccccc12)c1ccc([N+](=O)[O-])cc1	41.1 µM	> 100 µM	47.6 µM	> 100 µM	30.4 µM	–	–	66.4 µM	> 100 µM	–	–	–	–	–	–
